Measured values published in the Kinase Knowledgebase extract (Sharma et al. 2016).

Biological target: MAPK14 (UniProt Q16539)
Experiment: p38-alpha Inhibition
Conditions: for inhibition: concentration not given here

MAPK14, sequence (Q16539 whole entry, looked up): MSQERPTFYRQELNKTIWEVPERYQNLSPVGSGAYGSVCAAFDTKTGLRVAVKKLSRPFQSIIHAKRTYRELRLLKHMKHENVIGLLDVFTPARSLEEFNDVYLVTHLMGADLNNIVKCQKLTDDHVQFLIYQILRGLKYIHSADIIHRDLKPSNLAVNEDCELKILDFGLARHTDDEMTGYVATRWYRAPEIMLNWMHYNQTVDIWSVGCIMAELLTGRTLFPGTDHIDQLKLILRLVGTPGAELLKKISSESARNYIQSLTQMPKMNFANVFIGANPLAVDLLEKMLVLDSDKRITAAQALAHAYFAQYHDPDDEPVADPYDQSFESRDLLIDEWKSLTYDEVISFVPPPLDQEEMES

Compound	IC50	inhibition
Cc1ccccc1-c1nc(Nc2ccncc2)c2ccccc2n1	800 nM	–
COc1cccc(CNc2ccc3nc(-c4ccccc4F)nc(Nc4ccncc4)c3c2)c1	–	> 90%
COc1cccc(CNc2ccc3c(Nc4ccncc4)nc(-c4ccc(F)cc4)nc3c2)c1	–	> 90%
Nc1ccc2c(Nc3ccncc3)nc(-c3ccccc3F)nc2c1	–	> 90%
Fc1ccc(-c2nc(Nc3ccncc3)c3ccccc3n2)cc1	800 nM	–
CC(C)CNc1ccc2nc(-c3ccccc3F)nc(Nc3ccncc3)c2c1	–	> 90%
CSc1ccc(CNc2ccc3nc(-c4ccccc4F)nc(Nc4ccncc4)c3c2)cc1	–	> 90%
c1ccc(-c2nc(NCc3ccncc3)c3ccccc3n2)cc1	800 nM	–
O=[N+]([O-])c1ccc2nc(-c3ccccc3F)nc(Nc3ccncc3)c2c1	–	> 90%
Nc1ccc2c(Nc3ccncc3)nc(-c3ccc(F)cc3)nc2c1	–	> 90%
COc1cccc(Nc2nc(-c3ccccc3)nc3ccccc23)c1	800 nM	–
COc1cc2nc(-c3ccccc3Cl)nc(Nc3ccncc3)c2cc1OC	–	> 90%
Fc1ccccc1-c1nc(Nc2ccncc2)c2ccccc2n1	800 nM	–
COc1ccc(C(=O)Nc2ccc3nc(-c4ccccc4F)nc(Nc4ccncc4)c3c2)cc1	–	> 90%
COc1ccc(CNc2ccc3nc(-c4ccccc4F)nc(Nc4ccncc4)c3c2)cc1	–	> 90%
Brc1ccccc1-c1nc(Nc2ccncc2)c2ccccc2n1	800 nM	–
Clc1ccccc1-c1nc(Nc2ccncc2)c2ccccc2n1	800 nM	–
Nc1ccc2nc(-c3ccccc3F)nc(Nc3ccncc3)c2c1	800 nM	> 90%
c1ccc(-c2nc(Nc3ccncc3)c3ccccc3n2)cc1	800 nM	–
